Measured values from article PMC11301756, “The crystal structure of Shethna protein II (FeSII) from Azotobacter vinelandii suggests a domain swap” (Acta Crystallographica Section D: Structural Biology, 2024).

Experiments:
[1] = molecular target: T1, FeSII (Shethna protein II) (Azotobacter vinelandii, UniProt Q44501); test: X-ray crystal structure (Fe-SAD); type: binding; conditions: intrinsic cluster, protein prepared and crystallized aerobically (oxidized); pH 8.0; five copies in asymmetric unit, one closed and four open (domain-swapped)
T1 construct: synthetic gene in pRSET-A, no tag, expressed in E. coli KRX; about 13 kDa; dimer in solution; prepared aerobically (oxidized)
T1 sequence (Q44501 2-122 limits assumed): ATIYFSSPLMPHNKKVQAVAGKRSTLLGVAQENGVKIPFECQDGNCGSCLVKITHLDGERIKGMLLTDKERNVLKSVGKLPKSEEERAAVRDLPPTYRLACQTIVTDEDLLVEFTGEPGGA

[2] = molecular target: the molecule itself; test: crystal structure; FeSII alone, hanging-drop vapour diffusion, 0.1 M HEPES pH 8.0, 0.2 M sodium citrate, 24% PEG 3350, 2% 1-butanol, 40 mg/ml FeSII; P2(1)2(1)2, 1.65 Å, Fe-SAD; dimers between chains and crystallographic symmetry mates

`[S]1[Fe][S][Fe]1` [2Fe–2S cluster] was tested, and the “X-ray crystal structure (Fe-SAD), 1.65 A” value [1] was “In chain E (salmon) in the crystal, the lid helix from chain E covers the iron–sulfur cluster”.

B1: Shethna protein II (FeSII) from Azotobacter vinelandii (natural protein, UniProt Q44501 1-122, looked up)
chain: MATIYFSSPLMPHNKKVQAVAGKRSTLLGVAQENGVKIPFECQDGNCGSCLVKITHLDGERIKGMLLTDKERNVLKSVGKLPKSEEERAAVRDLPPTYRLACQTIVTDEDLLVEFTGEPGGA
notes: FeSII (Shethna protein II), adrenodoxin-type 2Fe-2S ferredoxin of Azotobacter vinelandii, locus AVIN_39700; synthetic gene in pRSET-A with no tag, amplified with primers from the start codon (ATGGCGACGATCTATTTCAGCAGC) to the stop codons; Carries a 2Fe-2S cluster; prepared aerobically (oxidized); Five copies in the asymmetric unit of the crystal; also called FeSII protein; source: E. coli …
B1: binds [2].
